Laboratory results: patent publication US8163737B2 (Vertex Pharmaceuticals Incorporated, priority 2006, dated 2012)

Experiments:
endogenous CGRP receptor = endogenous CGRP receptor (Homo sapiens, UniProt O60894+Q16602); assay: CGRP functional antagonism using SK-N-MC-BLA (4C10), β-lactamase transcriptional reporter assay; type: cell-based; conditions: SK-N-MC (4C10) cells, inhibition of β-lactamase expression in the presence of 200 pM CGRP
[1] = molecular target: T1, CGRP receptor (SK-N-MC membrane) (Homo sapiens, UniProt O60894+Q16602); assay: I125-CGRP binding displacement assay on purified SK-N-MC membrane
T1 construct: Purified SK-N-MC membrane was purchased from Perkin Elmer; purchased Perkin Elmer; host or cells: SK-N-MC membrane
T1 sequence (Q16602 23-461): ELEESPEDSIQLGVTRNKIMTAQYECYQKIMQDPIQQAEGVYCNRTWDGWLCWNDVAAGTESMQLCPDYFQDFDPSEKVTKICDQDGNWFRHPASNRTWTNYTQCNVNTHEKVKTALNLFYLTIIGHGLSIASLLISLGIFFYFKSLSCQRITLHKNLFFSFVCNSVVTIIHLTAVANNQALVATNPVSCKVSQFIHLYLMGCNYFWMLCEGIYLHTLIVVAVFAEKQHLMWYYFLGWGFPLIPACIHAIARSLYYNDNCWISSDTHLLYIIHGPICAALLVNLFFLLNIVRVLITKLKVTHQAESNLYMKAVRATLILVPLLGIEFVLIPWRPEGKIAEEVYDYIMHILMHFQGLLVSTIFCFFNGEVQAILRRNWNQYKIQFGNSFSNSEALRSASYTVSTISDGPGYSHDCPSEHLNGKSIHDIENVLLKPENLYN
T1 sequence (O60894 27-148): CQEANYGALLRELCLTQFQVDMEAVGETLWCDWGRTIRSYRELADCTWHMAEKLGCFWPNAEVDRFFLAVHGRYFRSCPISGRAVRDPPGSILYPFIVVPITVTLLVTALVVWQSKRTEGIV
Summary of the method: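 Human SK-N-MC membranes incubated with compounds and I125-CGRP for 2 h at room temperature in 25 mM Tris-HCl pH 7.4, 5 mM MgCl2, 0.1% BSA, 0.05% Tween, then filtered and counted. Nonspecific binding defined with 1 uM unlabelled CGRP; percent displacement fitted to curves.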

Chain of endogenous CGRP receptor (Q16602 23-461): as the sequence (Q16602 23-461) above
Chain of endogenous CGRP receptor (O60894 27-148): as the sequence (O60894 27-148) above

`CC(C)(C)CCN1C(=O)[C@H](CC(=O)N2CCC(n3c(=O)[nH]c4ncccc43)CC2)SC1c1cccc(F)c1NCCN1CCCCC1` (stereo partly drawn) [Compound 532, 1-(1-(2-((5S)-2-(2-(2-(Piperidin-1-yl)ethylamino)-3-fluorophenyl)-3-(3,3-dimethylbutyl)-4-oxothiazolidin-5-yl)acetyl)piperidin-4-yl)-1H-imidazo[4,5-b]pyridin-2(3H)-one] was tested, and the IC50 (endogenous CGRP receptor) was less than 1 µM and the Ki [1] was less than 1 µM.
With `COCCN1C(=O)[C@H](CC(=O)N2CCC(N3CCc4ccccc4NC3=O)CC2)SC1c1cccc(F)c1N1CCN(C(C)(C)C)CC1` (stereo partly shown) [Compound 533] the IC50 (endogenous CGRP receptor) was less than 1 µM and the Ki [1] was less than 1 µM.
`COCCN1C(=O)[C@H](CC(=O)N2CCC(N3CCc4ccccc4NC3=O)CC2)SC1c1cccc(F)c1N1CCN(C(C)(C)C)CC1` (stereo partly shown) [Compound 534] showed an IC50 (endogenous CGRP receptor) of less than 1 µM and a Ki [1] of less than 1 µM.
Molecule `COCCN1C(=O)[C@H](CC(=O)N2CCC(n3c(=O)[nH]c4ncccc43)CC2)SC1c1cccc(F)c1N1CCN(C(C)(C)C)CC1` (stereo partly shown) [Compound 535] has an IC50 (endogenous CGRP receptor) of less than 1 µM and a Ki [1] of less than 1 µM.
`CCCN1C(=O)[C@H](CC(=O)N2CCC(n3c(=O)[nH]c4ncccc43)CC2)SC1c1cccc(F)c1N1CCN(C(C)(C)C)CC1` (stereo partly shown) [Compound 538] was tested, and the IC50 (endogenous CGRP receptor) was less than 1 µM and the Ki [1] was less than 1 µM.
Work on `CC(C)(C)N1CCN(c2c(F)cccc2C2S[C@@H](CC(=O)N3CCC(N4CCc5ccccc5NC4=O)CC3)C(=O)N2Cc2ccccc2)CC1` (stereo partly shown) [Compound 539] yielded an IC50 (endogenous CGRP receptor) of less than 1 µM and a Ki [1] of less than 1 µM.
Work on `CC(C)(C)N1CCN(c2c(F)cccc2C2S[C@@H](CC(=O)N3CCC(n4c(=O)[nH]c5ncccc54)CC3)C(=O)N2Cc2ccccc2)CC1` (stereo partly shown) [Compound 540] yielded an IC50 (endogenous CGRP receptor) of less than 1 µM and a Ki [1] of less than 1 µM.
`CC(C)CN1CCN(c2ccccc2[C@H]2S[C@@H](CC(=O)N3CCC(N4CCc5ccccc5NC4=O)CC3)C(=O)N2CCC(C)(C)C)C(=O)C1` [Compound 541] was tested, and the IC50 (endogenous CGRP receptor) was less than 1 µM and the Ki [1] was less than 1 µM.
Work on `CC(C)(C)CCN1C(=O)[C@H](CC(=O)N2CCC(N3CCc4ccccc4NC3=O)CC2)SC1c1cccc(F)c1N1CCN(C2CCC2)CC1` (stereo partly shown) [Compound 542] yielded an IC50 (endogenous CGRP receptor) of less than 1 µM and a Ki [1] of less than 1 µM.
In the case of `CC(C)(C)CCN1C(=O)[C@H](CC(=O)N2CCC(N3CCc4ccccc4NC3=O)CC2)SC1c1cccc(F)c1N1CCN(C2CCC2)CC1` (stereo partly shown) [Compound 543], the IC50 (endogenous CGRP receptor) is reported as less than 1 µM and the Ki [1] is reported as less than 1 µM.
`CC(C)CCN1C(=O)[C@H](CC(=O)N2CCC(N3CCc4ccccc4NC3=O)CC2)SC1c1cccc(F)c1N1CCN(C(C)(C)C)CC1` (stereo partly shown) [Compound 544] showed an IC50 (endogenous CGRP receptor) of less than 1 µM and a Ki [1] of less than 1 µM.
`CC(C)CCN1C(=O)[C@H](CC(=O)N2CCC(N3CCc4ccccc4NC3=O)CC2)SC1c1cccc(F)c1N1CCN(C(C)(C)C)CC1` (stereo partly shown) [Compound 545] showed an IC50 (endogenous CGRP receptor) of less than 1 µM and a Ki [1] of less than 1 µM.
Work on `CC(C)(C)N1CCN(c2c(F)cccc2[C@H]2S[C@@H](CC(=O)N3CCC(N4CCc5ccccc5NC4=O)CC3)C(=O)N2Cc2ccccc2)CC1` [Compound 547] yielded an IC50 (endogenous CGRP receptor) of less than 1 µM and a Ki [1] of less than 1 µM.
Molecule `CC(C)(C)N1CCN(c2c(F)cccc2[C@@H]2S[C@@H](CC(=O)N3CCC(N4CCc5ccccc5NC4=O)CC3)C(=O)N2Cc2ccccc2)CC1` [Compound 548] has an IC50 (endogenous CGRP receptor) of less than 1 µM and a Ki [1] of less than 1 µM.
In the case of `CC(C)(C)CCN1C(=O)[C@H](CC(=O)N2CCC(n3c(=O)[nH]c4ncccc43)CC2)SC1c1cccc(F)c1N1CCN(C(=O)OC(C)(C)C)CC1` (stereo partly shown) [Compound 549], the IC50 (endogenous CGRP receptor) is reported as 1 to 5 µM and the Ki [1] is reported as less than 1 µM.
For `CC(C)(C)CCN1C(=O)[C@H](CC(=O)N2CCC(N3CCc4ccccc4NC3=O)CC2)SC1c1cccc(F)c1N1CCC(N2CCCCC2)CC1` (stereo partly shown) [Compound 550], the IC50 (endogenous CGRP receptor) was less than 1 µM and the Ki [1] was less than 1 µM.
Molecule `CC(C)(C)CCN1C(=O)[C@H](CC(=O)N2CCC(n3c(=O)[nH]c4ncccc43)CC2)SC1c1cccc(F)c1C1CCN(C(=O)OC(C)(C)C)CC1` (stereo partly shown) [Compound 551] has an IC50 (endogenous CGRP receptor) greater than 5 µM and a Ki [1] of 1 to 5 µM.
